This passage reports inhibition and IL-1β % inhibition results from patent US7297700B2, “Bicycloheteroaryl compounds as P2X7 modulators and uses thereof” (Renovis, Inc., priority 2005, dated 2007).

The subject of one assay is IL-1β release from THP-1 cells. The experiment in a line: IL-1β Release Assay (Alternate Method), THP-1 cells. The assay is classed as cell-based, human. To be noted: Homo sapiens; at 0.3 μM; THP-1 cells; read-out: IL-1β % inhibition. The essentials: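 IL-1β release, measured by ELISA, follows 45 min BzATP (250 uM final) stimulation of THP-1 cells given 30 min compound pretreatment. Cells were first primed 16 h with LPS and IFN-γ (100 ng/mL each), then 2 h with fresh LPS; inhibition expressed in percent after background correction.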
By inhibition is commonly meant the relative decrease from the control value, in per cent. As to `O=C(NCC12CC3CC(CC(C3)C1)C2)c1ncnc2c1CCN(Cc1ccccc1)C2` [Compound 17, 7-Benzyl-N-adamantylmethyl-5,6,7,8-tetrahydropyrido[3,4-d]pyrimidine-4-carboxamide], the inhibition at 0.3 µM is greater than 75%.

For the compound `Cc1ncc2c(c1C(=O)NCC13CC4CC(CC(C4)C1)C3)CCN(Cc1ccccc1)C2` [Compound 368, 7-Benzyl-3-methyl-5,6,7,8-tetrahydro-[2,7]naphthyridine-4carboxylic acid (adamantan-1-ylmethyl)-amide], the inhibition at 0.3 µM was in the range of 0 to 25%. For the compound `O=C(CC12CC3CC(CC(C3)C1)C2)Nc1ncnc2c1CCN(Cc1ccc3c(c1)OCCO3)C2` [Compound 46], the inhibition at 0.3 µM was greater than 75%.

The assay is the same for the next values; noted with them: at 0.3 μM; THP-1 cells.
Take `O=C(CC12CC3CC(CC(C3)C1)C2)Nc1ncnc2c1CCN(S(=O)(=O)c1cc(Cl)ccc1F)C2` [Compound 205]: the IL-1β % inhibition entry was “+ (compound exhibited 0-25% inhibition at 0.3 μM)”. With `CC(C)(C)c1ccc(C(=O)N2CCc3c(ncnc3NC(=O)CC34CC5CC(CC(C5)C3)C4)C2)cc1` [Compound 301], the IL-1β % inhibition result is given as “++++ (compound exhibited 75% or greater inhibition at 0.3 μM)”. Same read-out and setting: then `CC12CC3CC(C)(C1)CC(CC(=O)Nc1ncnc4c1CCN(S(=O)(=O)Cc1ccc(Cl)cc1)C4)(C3)C2` [Compound 379], with “+++ (compound exhibited 50-75% inhibition at 0.3 μM)”. For the compound `O=C(O)C=Cc1ccc(CN2CCc3c(ncnc3NC(=O)CC34CC5CC(CC(C5)C3)C4)C2)cc1` [Compound 115], the IL-1β % inhibition entry was “+ (compound exhibited 0-25% inhibition at 0.3 μM)”. Consider `COc1ccc(S(=O)(=O)N2CCc3c(ncnc3NC(=O)CC34CC5CC(CC(C5)C3)C4)C2)cc1OC` [Compound 151], for which the IL-1β % inhibition result is listed as “+ (compound exhibited 0-25% inhibition at 0.3 μM)”.

In the case of `O=C(CC12CC3CC(CC(C3)C1)C2)Nc1ncnc2c1CCN(C(=O)COc1ccc(Cl)cc1)C2` [Compound 264], the IL-1β % inhibition entry was “+++ (compound exhibited 50-75% inhibition at 0.3 μM)”. On to `COc1ccccc1CCC(=O)Nc1ncnc2c1CCN(Cc1ccncc1)C2` [Compound 133], for which the IL-1β % inhibition result is given as “+ (compound exhibited 0-25% inhibition at 0.3 μM)”. For the compound `O=C(CC12CC3CC(CC(C3)C1)C2)Nc1ncnc2c1CCN(C(=O)c1cccc(Cl)c1)C2` [Compound 253], the IL-1β % inhibition entry was “+++ (compound exhibited 50-75% inhibition at 0.3 μM)”. `O=C(CC12CC3CC(CC(C3)C1)C2)Nc1ncnc2c1CCN(Cc1cccc(Cl)c1)C2` [Compound 34]: the IL-1β % inhibition entry is recorded as “+ (compound exhibited 0-25% inhibition at 0.3 μM)”. `O=C(CC12CC3CC(CC(C3)C1)C2)Nc1ncnc2c1CCN(S(=O)(=O)Cc1cccc(C(F)(F)F)c1)C2` [Compound 187]: the IL-1β % inhibition entry is recorded as “++++ (compound exhibited 75% or greater inhibition at 0.3 μM)”. As for `COc1cccc(CC(=O)N2CCc3c(ncnc3NC(=O)CC34CC5CC(CC(C5)C3)C4)C2)c1` [Compound 261], the IL-1β % inhibition entry is listed as “+ (compound exhibited 0-25% inhibition at 0.3 μM)”. Regarding `O=C(CC12CC3CC(CC(C3)C1)C2)Nc1ncnc2c1CCN(C(=O)CCC1CCCC1)C2` [Compound 231], the IL-1β % inhibition entry is on record as “++ (compound exhibited 25-50% inhibition at 0.3 μM)”. In the case of `O=C(CC1CCCCC1)Nc1ncnc2c1CCNC2` [Compound 11], the IL-1β % inhibition result is listed as “+ (compound exhibited 0-25% inhibition at 0.3 μM)”. With `O=C(CC12CC3CC(CC(C3)C1)C2)Nc1ncnc2c1CCN(C(=O)C1CCCCC1)C2` [Compound 244], the IL-1β % inhibition entry was “++ (compound exhibited 25-50% inhibition at 0.3 μM)”. For `CC(C)(C)C(=O)N1CCc2c(ncnc2NC(=O)CC23CC4CC(CC(C4)C2)C3)C1` [Compound 252], the IL-1β % inhibition entry is “++ (compound exhibited 25-50% inhibition at 0.3 μM)”. Consider `COc1cc(CN2CCc3c(ncnc3NC(=O)CC34CC5CC(CC(C5)C3)C4)C2)ccc1O` [Compound 117], for which the IL-1β % inhibition result is “+ (compound exhibited 0-25% inhibition at 0.3 μM)”.

In the case of `CN1CCc2c(ncnc2NC(=O)CC23CC4CC(CC(C4)C2)C3)C1` [Compound 7], the IL-1β % inhibition result was “+ (compound exhibited 0-25% inhibition at 0.3 μM)”. On the same count and under the same terms, then `CN1CCc2c(ncnc2NC(=O)CC2CCCCC2)C1` [Compound 26], with “+++ (compound exhibited 50-75% inhibition at 0.3 μM)”. Turning to `O=C(CC12CC3CC(CC(C3)C1)C2)Nc1ncnc2c1CCN(C(=O)c1ccncc1)C2` [Compound 304], the IL-1β % inhibition entry was “+ (compound exhibited 0-25% inhibition at 0.3 μM)”. `CC(C)(C(=O)Nc1ncnc2c1CCN(S(=O)(=O)c1ccc(F)c(F)c1)C2)C12CC3CC(CC(C3)C1)C2` [Compound 355]: the IL-1β % inhibition entry is “+ (compound exhibited 0-25% inhibition at 0.3 μM)”. Consider `O=C(CC12CC3CC(CC(C3)C1)C2)Nc1ncnc2c1CCN(Cc1ccc(OC(F)F)cc1)C2` [Compound 78], for which the IL-1β % inhibition result is recorded as “+ (compound exhibited 0-25% inhibition at 0.3 μM)”.

Staying with this assay, now noted: at 0.3 μM; THP-1 cells, BzATP-stimulated.
Consider `O=C(Nc1ncnc2c1CCN(S(=O)(=O)c1cc(Cl)ccc1Cl)C2)C12CC3CC(CC(C3)C1)C2` [Compound 538], for which the IL-1β % inhibition entry was “++ (compound exhibited 25-50% inhibition at 0.3 μM)”.

`O=C(C(c1ccccc1)c1ccccc1)N1CCc2c(ncnc2NC(=O)C23CC4CC(CC(C4)C2)C3)C1` [Compound 409]: the IL-1β % inhibition result is recorded as “+ (compound exhibited 0-25% inhibition at 0.3 μM)”.

In the case of `COc1cc(F)c(CN2CCc3c(ncnc3NC(=O)C34CC5CC(CC(C5)C3)C4)C2)cc1OC` [Compound 623], the IL-1β % inhibition result is given as “+ (compound exhibited 0-25% inhibition at 0.3 μM)”. Regarding `O=C(Nc1ncnc2c1CCN(S(=O)(=O)Cc1ccc(Cl)c(Cl)c1)C2)C12CC3CC(CC(C3)C1)C2` [Compound 518], the IL-1β % inhibition entry is reported as “++++ (compound exhibited 75% or greater inhibition at 0.3 μM)”. With `COc1ccc(-c2ccc(S(=O)(=O)N3CCc4c(ncnc4NC(=O)C45CC6CC(CC(C6)C4)C5)C3)cc2)cc1` [Compound 512], the IL-1β % inhibition result is given as “++ (compound exhibited 25-50% inhibition at 0.3 μM)”.

As to `O=C(Nc1ncnc2c1CCN(S(=O)(=O)c1ccc(OC(F)(F)F)cc1)C2)C12CC3CC(CC(C3)C1)C2` [Compound 493], the IL-1β % inhibition entry is “++ (compound exhibited 25-50% inhibition at 0.3 μM)”.

As for `O=C(Nc1ncnc2c1CCN(S(=O)(=O)c1ccc(F)cc1)C2)C12CC3CC(CC(C3)C1)C2` [Compound 490], the IL-1β % inhibition entry is “+++ (compound exhibited 50-75% inhibition at 0.3 μM)”. As to `O=C(Nc1ncnc2c1CCN(Cc1ccc(Br)cc1)C2)C12CC3CC(CC(C3)C1)C2` [Compound 597], the IL-1β % inhibition entry was “+++ (compound exhibited 50-75% inhibition at 0.3 μM)”. For the compound `O=C(Nc1ncnc2c1CCN(S(=O)(=O)c1ccccc1C(F)(F)F)C2)C12CC3CC(CC(C3)C1)C2` [Compound 528], the IL-1β % inhibition result is reported as “++ (compound exhibited 25-50% inhibition at 0.3 μM)”. Turning to `O=C(Nc1ncnc2c1CCN(S(=O)(=O)c1ccccc1Cl)C2)C12CC3CC(CC(C3)C1)C2` [Compound 525], the IL-1β % inhibition entry is “+ (compound exhibited 0-25% inhibition at 0.3 μM)”. Same read-out and setting: then `O=C(Cc1ccc(Cl)cc1)N1CCc2c(ncnc2NC(=O)C23CC4CC(CC(C4)C2)C3)C1` [Compound 437], with “+ (compound exhibited 0-25% inhibition at 0.3 μM)”. Turning to `O=C(c1ccc2ccccc2n1)N1CCc2c(ncnc2NC(=O)C23CC4CC(CC(C4)C2)C3)C1` [Compound 471], the IL-1β % inhibition result is listed as “++ (compound exhibited 25-50% inhibition at 0.3 μM)”.
